ChEMBL document CHEMBL1201862, “PubChem BioAssay data set” (2004)
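Step 1: Grow cells in 96-well plates. Step 2: Expose to compound for 48 hours at 5 concentrations. Step 3: Interpolate endpoints linearly; if unreached, use highest concentration. The concentration for 50% growth inhibition is given as GI50.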 Activity calls are given as the source filed them. No stated cut-off is given here; in the data, active = GI50 up to about 1.1 µM and inactive = higher.

Assays:
Assay in all cases: DTP human tumour cell line panel, 48 h
ACHN = tested on: ACHN
SNB-75 = tested on: SNB-75
DU-145 = tested on: DU-145
HOP-62 = tested on: HOP-62
SK-MEL-28 = tested on: SK-MEL-28
OVCAR-8 = tested on: OVCAR-8
786-0 = tested on: 786-0
Malme-3M = tested on: Malme-3M
SK-MEL-5 = tested on: SK-MEL-5
SF-539 = tested on: SF-539
BT-549 = tested on: BT-549
IGROV-1 = tested on: IGROV-1
KM12 = tested on: KM12
SF-268 = tested on: SF-268
Hs-578T = tested on: Hs-578T
A549 = tested on: A549
EKVX = tested on: EKVX
SW-620 = tested on: SW-620
CCRF-CEM = tested on: CCRF-CEM
NCI/ADR-RES = tested on: NCI/ADR-RES
HCC 2998 = tested on: HCC 2998
HCT-116 = tested on: HCT-116
UO-31 = tested on: UO-31
RXF 393 = tested on: RXF 393
NCI-H460 = tested on: NCI-H460
NCI-H23 = tested on: NCI-H23
T47D = tested on: T47D
NCI-H522 = tested on: NCI-H522
HT-29 = tested on: HT-29
CAKI-1 = tested on: CAKI-1
NCI-H226 = tested on: NCI-H226
MOLT-4 = tested on: MOLT-4
K562 = tested on: K562
OVCAR-3 = tested on: OVCAR-3
MDA-MB-231 = tested on: MDA-MB-231
HCT-15 = tested on: HCT-15
OVCAR-5 = tested on: OVCAR-5
COLO 205 = tested on: COLO 205
UACC-62 = tested on: UACC-62
MCF7 = tested on: MCF7
SF-295 = tested on: SF-295
SK-MEL-2 = tested on: SK-MEL-2
LOX IMVI = tested on: LOX IMVI
SR = tested on: SR
MDA-N = tested on: MDA-N
SN12C = tested on: SN12C
UACC-257 = tested on: UACC-257
A498 = tested on: A498
SK-OV-3 = tested on: SK-OV-3
M14 = tested on: M14
HOP-92 = tested on: HOP-92
SNB-19 = tested on: SNB-19
RPMI-8226 = tested on: RPMI-8226
HL-60 = tested on: HL-60
MDA-MB-435 = tested on: MDA-MB-435
OVCAR-4 = tested on: OVCAR-4
PC-3 = tested on: PC-3
U-251 = tested on: U-251
TK-10 = tested on: TK-10

CC(C)(C)c1ccc(O)c(C(O)c2ccncc2)c1 (stereo not given)
GI50 (ACHN): 52.4 µM (inactive)
GI50 (SNB-75): 68.7 µM (inactive)
GI50 (DU-145): > 100 µM (inactive)
GI50 (HOP-62): > 100 µM (inactive)
GI50 (SK-MEL-28): > 100 µM (inactive)
GI50 (OVCAR-8): > 100 µM (inactive)
GI50 (786-0): > 100 µM (inactive)
GI50 (Malme-3M): 62.7 µM (inactive)
GI50 (SK-MEL-5): 24.1 µM (inactive)
GI50 (SF-539): > 100 µM (inactive)
GI50 (BT-549): > 100 µM (inactive)
GI50 (IGROV-1): > 100 µM (inactive)
GI50 (KM12): > 100 µM (inactive)
GI50 (SF-268): > 100 µM (inactive)
GI50 (Hs-578T): 37.7 µM (inactive)
GI50 (A549): 83.2 µM (inactive)
GI50 (EKVX): 44.6 µM (inactive)
GI50 (SW-620): > 100 µM (inactive)
GI50 (CCRF-CEM): > 100 µM (inactive)
GI50 (NCI/ADR-RES): 53 µM (inactive)
GI50 (HCC 2998): 39.7 µM (inactive)
GI50 (HCT-116): > 100 µM (inactive)
GI50 (UO-31): > 100 µM (inactive)
GI50 (RXF 393): 45.4 µM (inactive)
GI50 (NCI-H460): > 100 µM (inactive)
GI50 (NCI-H23): 70.8 µM (inactive)
GI50 (T47D): 16.9 µM (inactive)
GI50 (NCI-H522): > 100 µM (inactive)
GI50 (HT-29): > 100 µM (inactive)
GI50 (CAKI-1): > 100 µM (inactive)
GI50 (NCI-H226): 72.1 µM (inactive)
GI50 (MOLT-4): 76.4 µM (inactive)
GI50 (K562): 61.4 µM (inactive)
GI50 (OVCAR-3): > 100 µM (inactive)
GI50 (MDA-MB-231): 62.8 µM (inactive)
GI50 (HCT-15): 52.4 µM
GI50 (OVCAR-5): 70.8 µM (inactive)
GI50 (COLO 205): > 100 µM (inactive)

NC12Oc3cc(O)cc(O)c3C1(c1ccc(Cl)cc1)c1c(O)cc(O)cc1O2 (stereo not given)
GI50 (ACHN): > 100 µM (inactive)
GI50 (SNB-75): 89.1 µM (inactive)
GI50 (UACC-62): 42 µM (inactive)
GI50 (DU-145): > 100 µM (inactive)
GI50 (HOP-62): 68.9 µM (inactive)
GI50 (MCF7): 59.8 µM (inactive)
GI50 (SF-295): 96.8 µM (inactive)
GI50 (SK-MEL-28): 61.2 µM (inactive)
GI50 (OVCAR-8): > 100 µM (inactive)
GI50 (786-0): 61.8 µM (inactive)
GI50 (Malme-3M): 40.6 µM (inactive)
GI50 (SK-MEL-2): 36.6 µM (inactive)
GI50 (SK-MEL-5): 37.5 µM (inactive)
GI50 (LOX IMVI): 57.4 µM (inactive)
GI50 (SF-539): 42.8 µM (inactive)
GI50 (BT-549): > 100 µM (inactive)
GI50 (IGROV-1): 41.7 µM (inactive)
GI50 (KM12): > 100 µM (inactive)
GI50 (SF-268): 69 µM (inactive)
GI50 (SR): 22.5 µM (inactive)
GI50 (MDA-N): 39.9 µM (inactive)
GI50 (Hs-578T): 28.8 µM (inactive)
GI50 (A549): > 100 µM (inactive)
GI50 (SN12C): 21.4 µM (inactive)
GI50 (EKVX): 71.8 µM (inactive)
GI50 (UACC-257): 79.1 µM (inactive)
GI50 (SW-620): > 100 µM (inactive)
GI50 (CCRF-CEM): 37.7 µM (inactive)
GI50 (A498): > 100 µM (inactive)
GI50 (NCI/ADR-RES): > 100 µM (inactive)
GI50 (HCC 2998): > 100 µM (inactive)
GI50 (HCT-116): 46 µM (inactive)
GI50 (UO-31): 92.5 µM (inactive)
GI50 (RXF 393): 32.3 µM (inactive)
GI50 (NCI-H460): 34.6 µM (inactive)
GI50 (NCI-H23): 46.9 µM (inactive)
GI50 (SK-OV-3): > 100 µM (inactive)
GI50 (T47D): > 100 µM (inactive)
GI50 (M14): > 100 µM (inactive)
GI50 (HOP-92): 25.9 µM (inactive)
GI50 (SNB-19): 73.1 µM (inactive)
GI50 (NCI-H522): 24.7 µM (inactive)
GI50 (HT-29): 35.4 µM (inactive)
GI50 (CAKI-1): > 100 µM (inactive)
GI50 (NCI-H226): > 100 µM (inactive)
GI50 (RPMI-8226): 33.4 µM (inactive)
GI50 (MOLT-4): 27.9 µM (inactive)
GI50 (HL-60): 27.4 µM (inactive)
GI50 (K562): 30.8 µM (inactive)
GI50 (MDA-MB-435): 46.8 µM (inactive)
GI50 (OVCAR-4): 27.5 µM (inactive)
GI50 (PC-3): 43 µM (inactive)
GI50 (OVCAR-3): 47.6 µM (inactive)
GI50 (U-251): 65.8 µM (inactive)
GI50 (HCT-15): > 100 µM
GI50 (TK-10): 66.8 µM (inactive)
GI50 (OVCAR-5): > 100 µM (inactive)
GI50 (COLO 205): 97.5 µM (inactive)

Cc1cc(C)c2c(c1)CC1(Cc3ccc(C)c(C)c3C1=O)C2=O (stereo not given)
GI50 (SNB-75): > 100 µM (inactive)
GI50 (UACC-62): > 100 µM (inactive)
GI50 (DU-145): > 100 µM (inactive)
GI50 (SK-MEL-28): > 100 µM (inactive)
GI50 (OVCAR-8): > 100 µM (inactive)
GI50 (786-0): > 100 µM (inactive)
GI50 (Malme-3M): 3.56 µM (inactive)
GI50 (SK-MEL-2): > 100 µM (inactive)
GI50 (SK-MEL-5): > 100 µM (inactive)
GI50 (LOX IMVI): > 100 µM (inactive)
GI50 (SF-539): > 100 µM (inactive)
GI50 (BT-549): > 100 µM (inactive)
GI50 (SF-268): > 100 µM (inactive)
GI50 (Hs-578T): 11.4 µM (inactive)
GI50 (A549): > 100 µM (inactive)
GI50 (SN12C): > 100 µM (inactive)
GI50 (UACC-257): > 100 µM (inactive)
GI50 (A498): > 100 µM (inactive)
GI50 (HCC 2998): > 100 µM (inactive)
GI50 (UO-31): > 100 µM (inactive)
GI50 (RXF 393): 15.8 µM (inactive)
GI50 (NCI-H460): > 100 µM (inactive)
GI50 (NCI-H23): > 100 µM (inactive)
GI50 (SK-OV-3): > 100 µM (inactive)
GI50 (T47D): > 100 µM (inactive)
GI50 (M14): > 100 µM (inactive)
GI50 (HOP-92): > 100 µM (inactive)
GI50 (SNB-19): > 100 µM (inactive)
GI50 (NCI-H522): > 100 µM (inactive)
GI50 (CAKI-1): > 100 µM (inactive)
GI50 (RPMI-8226): > 100 µM (inactive)
GI50 (MDA-MB-435): 2.24 µM (inactive)
GI50 (OVCAR-4): 45.9 µM (inactive)
GI50 (PC-3): 56.2 µM (inactive)
GI50 (OVCAR-3): > 100 µM (inactive)
GI50 (U-251): 45.2 µM (inactive)
GI50 (MDA-MB-231): 6.24 µM (inactive)
GI50 (TK-10): 49.8 µM (inactive)
GI50 (OVCAR-5): > 100 µM (inactive)
